Reference: ChEMBL document CHEMBL1201862, “PubChem BioAssay data set” (2004)
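Following 48 hours of exposure in 96-well plates, responses at five concentrations were used to interpolate endpoints linearly. GI50 = concentration required for 50% inhibition of growth.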 Activity calls are given as the source filed them. No stated cut-off is given here; in the data, active = GI50 up to about 1.1 µM and inactive = higher.

What was measured:
Experiment in all cases: NCI-60 cell line screen, 48 h
NCI-H522 = tested on: NCI-H522
RPMI-8226 = tested on: RPMI-8226
IGROV-1 = tested on: IGROV-1
KM12 = tested on: KM12
SF-268 = tested on: SF-268
SR = tested on: SR
ACHN = tested on: ACHN
OVCAR-5 = tested on: OVCAR-5
A498 = tested on: A498
A549 = tested on: A549
SK-MEL-2 = tested on: SK-MEL-2
OVCAR-3 = tested on: OVCAR-3
OVCAR-8 = tested on: OVCAR-8
SN12C = tested on: SN12C
HOP-62 = tested on: HOP-62
T47D = tested on: T47D
MDA-MB-435 = tested on: MDA-MB-435
HL-60 = tested on: HL-60
Malme-3M = tested on: Malme-3M
SK-OV-3 = tested on: SK-OV-3

Compound	GI50 (NCI-H522)	GI50 (RPMI-8226)	GI50 (IGROV-1)	GI50 (KM12)	GI50 (SF-268)	GI50 (SR)	GI50 (ACHN)	GI50 (OVCAR-5)	GI50 (A498)	GI50 (A549)	GI50 (SK-MEL-2)	GI50 (OVCAR-3)	GI50 (OVCAR-8)	GI50 (SN12C)	GI50 (HOP-62)	GI50 (T47D)	GI50 (MDA-MB-435)	GI50 (HL-60)	GI50 (Malme-3M)	GI50 (SK-OV-3)
CCCCCCCCCCCCCCCCNc1nc(=O)n(C2CC(O)C(CO)O2)cc1F (stereo not drawn)	5.28 µM (inactive)	15.8 µM (inactive)	11.6 µM (inactive)	13.8 µM (inactive)	2.93 µM (inactive)	4.01 µM (inactive)	0.259 µM (active)	18.2 µM (inactive)	> 10 µM (inactive)	0.94 µM (active)	19.6 µM (inactive)	13.9 µM (inactive)	1.82 µM (inactive)	12.5 µM (inactive)	7.52 µM (inactive)	11.7 µM (inactive)	12.2 µM (inactive)	5.47 µM (inactive)	10.8 µM (inactive)	13.5 µM (inactive)
O=C(/C=C/c1ccccc1)CCN1CCOCC1	3.87 µM (inactive)	1.56 µM (inactive)	15.7 µM (inactive)	7.52 µM (inactive)	12 µM (inactive)	2.06 µM (inactive)	15.2 µM (inactive)	15.7 µM (inactive)	19 µM (inactive)	24.2 µM (inactive)	21.1 µM (inactive)	14.3 µM (inactive)	15.1 µM (inactive)	14.8 µM (inactive)	27.3 µM (inactive)	17.7 µM (inactive)	15 µM (inactive)	2.12 µM (inactive)	18.6 µM (inactive)	24.1 µM (inactive)
COc1cc(S(=O)(=O)Nc2nc(-c3ccc(N4C(=O)C(CC(=O)O)SC4c4ccccc4O)cc3)cs2)ccc1Cl (stereo not drawn)	85.3 µM (inactive)	–	34.9 µM (inactive)	78.7 µM (inactive)	> 100 µM (inactive)	99.8 µM (inactive)	> 100 µM (inactive)	> 100 µM (inactive)	29.1 µM (inactive)	32 µM (inactive)	> 100 µM (inactive)	55.7 µM (inactive)	62.8 µM (inactive)	> 100 µM (inactive)	90.4 µM (inactive)	28.1 µM (inactive)	87.5 µM (inactive)	15.3 µM (inactive)	> 100 µM (inactive)	62.4 µM (inactive)
O=C(NCCCCCCNC(=O)n1cc(F)c(=O)[nH]c1=O)NCCCOCCOCCOCCOCCOCCOCCOCCOCCOCCOCCOCCOCCOCCOCCOCCOCCOCCOCCOCCOCCOCCCNC(=O)C(O)C(O)C(O)C(O)CO (stereo not drawn)	> 90.2 µM (inactive)	5.85 µM (inactive)	60.1 µM (inactive)	31.7 µM (inactive)	55.5 µM (inactive)	65.9 µM (inactive)	26.7 µM (inactive)	> 96.4 µM (inactive)	6.95 µM (inactive)	6.52 µM (inactive)	> 100 µM (inactive)	55.5 µM (inactive)	39.2 µM (inactive)	80 µM (inactive)	33.5 µM (inactive)	> 100 µM (inactive)	55.1 µM (inactive)	20.8 µM (inactive)	20.2 µM (inactive)	> 100 µM (inactive)
CCOC(=O)C(NC(=O)c1cccc(Cl)c1)(Nc1ccc(S(=O)(=O)Nc2cc(C)nc(C)n2)cc1)C(F)(F)F (stereo not drawn)	> 100 µM (inactive)	> 100 µM (inactive)	> 100 µM (inactive)	> 100 µM (inactive)	> 100 µM (inactive)	68.7 µM (inactive)	> 100 µM (inactive)	> 100 µM (inactive)	> 100 µM (inactive)	> 100 µM (inactive)	> 100 µM (inactive)	> 100 µM (inactive)	> 100 µM (inactive)	> 100 µM (inactive)	> 100 µM (inactive)	> 100 µM (inactive)	> 100 µM (inactive)	> 100 µM (inactive)	> 100 µM (inactive)	> 100 µM (inactive)
O=C(O)c1cccc(OCCO)c1	> 100 µM (inactive)	> 100 µM (inactive)	> 100 µM (inactive)	> 100 µM (inactive)	> 100 µM (inactive)	> 100 µM (inactive)	> 100 µM (inactive)	> 100 µM (inactive)	> 100 µM (inactive)	> 100 µM (inactive)	> 100 µM (inactive)	> 100 µM (inactive)	> 100 µM (inactive)	> 100 µM (inactive)	> 100 µM (inactive)	> 100 µM (inactive)	> 100 µM (inactive)	> 100 µM (inactive)	> 100 µM (inactive)	> 100 µM (inactive)
CO[C@H]1[C@@H](O)[C@@H](O)O[C@@H](O[C@H]2CC[C@@]3(C)[C@H](CC[C@@H]4[C@@H]3[C@H](O)C[C@]3(C)[C@@H](C5=CC(=O)OC5)CC[C@]43O)C2)[C@@H]1O	0.0239 µM (active)	0.198 µM (active)	0.301 µM (active)	0.698 µM (active)	0.11 µM (active)	0.21 µM (active)	0.0471 µM (active)	0.601 µM (active)	0.184 µM (active)	0.0491 µM (active)	0.299 µM (active)	0.112 µM (active)	0.33 µM (active)	0.064 µM (active)	0.124 µM (active)	0.362 µM (active)	0.28 µM (active)	0.191 µM (active)	0.198 µM (active)	0.248 µM (active)
CC1=NN(c2ccccc2)C(=O)/C1=C\c1c(C)[nH]n(-c2ccccc2)c1=O	53.7 µM (inactive)	28.4 µM (inactive)	> 100 µM (inactive)	> 100 µM (inactive)	> 100 µM (inactive)	> 100 µM (inactive)	> 100 µM (inactive)	> 100 µM (inactive)	> 100 µM (inactive)	> 100 µM (inactive)	> 100 µM (inactive)	54.5 µM (inactive)	> 100 µM (inactive)	> 100 µM (inactive)	> 100 µM (inactive)	36.1 µM (inactive)	> 100 µM (inactive)	> 100 µM (inactive)	95.1 µM (inactive)	> 100 µM (inactive)
O=C1Sc2ccc(Br)cc2C(=O)Sc2ccccc21	4.84 µM (inactive)	3.33 µM (inactive)	14.2 µM (inactive)	16 µM (inactive)	7.08 µM (inactive)	1.06 µM (active)	16.4 µM (inactive)	17.9 µM (inactive)	20.9 µM (inactive)	27.1 µM (inactive)	18.8 µM (inactive)	12.5 µM (inactive)	9.84 µM (inactive)	14.5 µM (inactive)	12.6 µM (inactive)	9.29 µM (inactive)	7.91 µM (inactive)	2.42 µM (inactive)	2.24 µM (inactive)	27.4 µM (inactive)
CCCC(=O)NC(Nc1ccc(F)cc1)(C(F)(F)F)C(F)(F)F	27.4 µM (inactive)	32.2 µM (inactive)	–	2.49 µM (inactive)	> 100 µM (inactive)	> 100 µM (inactive)	2.14 µM (inactive)	> 100 µM (inactive)	> 100 µM (inactive)	16.9 µM (inactive)	2.25 µM (inactive)	> 100 µM (inactive)	24.1 µM (inactive)	> 100 µM (inactive)	> 100 µM (inactive)	7.14 µM (inactive)	1.25 µM (inactive)	1.75 µM (inactive)	> 100 µM (inactive)	> 100 µM (inactive)
